# Experimental data from PubChem BioAssay AID1259407 (Chemical Carcinogenesis Research Information System (CCRIS), 2018).
# Calls of active or inactive are those of the source. How the calls were made is not given here.
# System: CCRIS mutagenicity, Ames/micronucleus/aberration tests
# Assay: CCRIS mutagenicity studies
# [1] = Test System: AMES SALMONELLA TYPHIMURIUM, Strain/Indicator: TA100, Metabolic Activation: NONE, Method: PREINCUBATION
# [2] = Test System: AMES SALMONELLA TYPHIMURIUM, Strain/Indicator: TA100, Metabolic Activation: NONE, Method: STANDARD PLATE
# [3] = Test System: AMES SALMONELLA TYPHIMURIUM, Strain/Indicator: TA1535, Metabolic Activation: NONE, Method: PREINCUBATION
# [4] = Test System: AMES SALMONELLA TYPHIMURIUM, Strain/Indicator: TA98, Metabolic Activation: NONE, Method: STANDARD PLATE
smiles,measurement,setting,value
COc1cc(O)c2c(=O)c(-c3ccc(O)cc3)coc2c1,mutagenic call,"Test System: SYRIAN HAMSTER EMBRYO CELLS, Strain/Indicator: HPRT/6-THIOGUANINE, Metabolic Activation: NONE, Method: PLATE",inactive; negative
c1ccc2c(CCC3CO3)cccc2c1 (stereo not given),mutagenic call,[1],active; positive
same,mutagenic call,[2],active; positive
same,mutagenic call,[3],active; positive
same,mutagenic call,"Test System: AMES SALMONELLA TYPHIMURIUM, Strain/Indicator: TA1535, Metabolic Activation: NONE, Method: STANDARD PLATE",active; positive
CCOP(=S)(OCC(C)C)SCCl (stereo not given),mutagenic call,"Test System: AMES SALMONELLA TYPHIMURIUM, Strain/Indicator: TA98, Metabolic Activation: NONE",inactive; negative
same,mutagenic call,[4],inactive; negative
same,mutagenic call,"Test System: AMES SALMONELLA TYPHIMURIUM, Strain/Indicator: TA98, Metabolic Activation: RAT, LIVER, S-9, SODIUM PHENOBARBITAL, Method: STANDARD PLATE",inactive; negative
same,mutagenic call,"Test System: AMES SALMONELLA TYPHIMURIUM, Strain/Indicator: TA98, Metabolic Activation: S-9",inactive; negative
same,mutagenic call,"Test System: AMES SALMONELLA TYPHIMURIUM, Strain/Indicator: TA100, Metabolic Activation: NONE",inactive; negative
same,mutagenic call,[2],inactive; negative
same,mutagenic call,"Test System: AMES SALMONELLA TYPHIMURIUM, Strain/Indicator: TA100, Metabolic Activation: RAT, LIVER, S-9, SODIUM PHENOBARBITAL, Method: STANDARD PLATE",inactive; negative
same,mutagenic call,"Test System: AMES SALMONELLA TYPHIMURIUM, Strain/Indicator: TA100, Metabolic Activation: S-9",inactive; negative
same,mutagenic call,"Test System: E. COLI, Strain/Indicator: WP2, Metabolic Activation: NONE",inactive; negative
same,mutagenic call,"Test System: E. COLI, Strain/Indicator: WP2, Metabolic Activation: RAT, LIVER, S-9, SODIUM PHENOBARBITAL, Method: STANDARD PLATE",inactive; negative
same,mutagenic call,"Test System: E. COLI, Strain/Indicator: WP2, Metabolic Activation: S-9",inactive; negative
same,mutagenic call,"Test System: E. COLI, Strain/Indicator: WP2 UVRA, Metabolic Activation: NONE",inactive; negative
same,mutagenic call,"Test System: E. COLI, Strain/Indicator: WP2 UVRA, Metabolic Activation: RAT, LIVER, S-9, SODIUM PHENOBARBITAL, Method: STANDARD PLATE",inactive; negative
same,mutagenic call,"Test System: E. COLI, Strain/Indicator: WP2 UVRA, Metabolic Activation: S-9",inactive; negative
ClC1C(Br)C(Br)C(Br)C(Br)C1Br (stereo not given),mutagenic call,"Test System: AMES SALMONELLA TYPHIMURIUM, Strain/Indicator: TA97, Metabolic Activation: HAMSTER, LIVER, S-9, AROCLOR 1254 (5, 10 OR 30%), Method: PREINCUBATION",inactive; negative
same,mutagenic call,"Test System: AMES SALMONELLA TYPHIMURIUM, Strain/Indicator: TA97, Metabolic Activation: NONE, Method: PREINCUBATION",inactive; negative
same,mutagenic call,"Test System: AMES SALMONELLA TYPHIMURIUM, Strain/Indicator: TA97, Metabolic Activation: RAT, LIVER, S-9, AROCLOR 1254 (10 OR 30%), Method: PREINCUBATION",inactive; negative
same,mutagenic call,"Test System: AMES SALMONELLA TYPHIMURIUM, Strain/Indicator: TA98, Metabolic Activation: HAMSTER, LIVER, S-9, AROCLOR 1254 (10 OR 30%), Method: PREINCUBATION",inactive; negative
same,mutagenic call,"Test System: AMES SALMONELLA TYPHIMURIUM, Strain/Indicator: TA98, Metabolic Activation: NONE, Method: PREINCUBATION",inactive; negative
same,mutagenic call,"Test System: AMES SALMONELLA TYPHIMURIUM, Strain/Indicator: TA98, Metabolic Activation: RAT, LIVER, S-9, AROCLOR 1254 (10 OR 30%), Method: PREINCUBATION",inactive; negative
same,mutagenic call,"Test System: AMES SALMONELLA TYPHIMURIUM, Strain/Indicator: TA100, Metabolic Activation: HAMSTER, LIVER, S-9, AROCLOR 1254 (10%), Method: PREINCUBATION",inactive; negative
same,mutagenic call,"Test System: AMES SALMONELLA TYPHIMURIUM, Strain/Indicator: TA100, Metabolic Activation: HAMSTER, LIVER, S-9, AROCLOR 1254 (30%), Method: PREINCUBATION",inactive; negative
same,mutagenic call,[1],inactive; negative
same,mutagenic call,"Test System: AMES SALMONELLA TYPHIMURIUM, Strain/Indicator: TA100, Metabolic Activation: RAT, LIVER, S-9, AROCLOR 1254 (10 OR 30%), Method: PREINCUBATION",inactive; negative
same,mutagenic call,"Test System: AMES SALMONELLA TYPHIMURIUM, Strain/Indicator: TA1535, Metabolic Activation: HAMSTER, LIVER, S-9, AROCLOR 1254 (5 OR 10%), Method: PREINCUBATION",inactive; negative
same,mutagenic call,"Test System: AMES SALMONELLA TYPHIMURIUM, Strain/Indicator: TA1535, Metabolic Activation: HAMSTER, LIVER, S-9, AROCLOR 1254 (30%), Method: PREINCUBATION",inactive; negative
same,mutagenic call,[3],inactive; negative
same,mutagenic call,"Test System: AMES SALMONELLA TYPHIMURIUM, Strain/Indicator: TA1535, Metabolic Activation: RAT, LIVER, S-9, AROCLOR 1254 (10 OR 30%), Method: PREINCUBATION",inactive; negative
N[C@@H](CCC(=O)N[C@@H](CS)C(=O)NCC(=O)O)C(=O)O,mutagenic call,"Test System: AMES SALMONELLA TYPHIMURIUM, Strain/Indicator: TA92, Metabolic Activation: RAT, KIDNEY, S-9, Method: PREINCUBATION",active; positive
same,mutagenic call,"Test System: AMES SALMONELLA TYPHIMURIUM, Strain/Indicator: TA92, Metabolic Activation: RAT, KIDNEY, S-9, Method: STANDARD PLATE",active; positive
same,mutagenic call,"Test System: AMES SALMONELLA TYPHIMURIUM, Strain/Indicator: TA97, Metabolic Activation: RAT, KIDNEY, S-9, Method: PREINCUBATION",active; positive
same,mutagenic call,"Test System: AMES SALMONELLA TYPHIMURIUM, Strain/Indicator: TA97, Metabolic Activation: RAT, KIDNEY, S-9, Method: STANDARD PLATE",active; positive
same,mutagenic call,[1],inactive; negative
same,mutagenic call,"Test System: AMES SALMONELLA TYPHIMURIUM, Strain/Indicator: TA100, Metabolic Activation: RAT, KIDNEY, S-9, Method: PREINCUBATION",active; positive
same,mutagenic call,"Test System: AMES SALMONELLA TYPHIMURIUM, Strain/Indicator: TA100, Metabolic Activation: RAT, KIDNEY, S-9, Method: STANDARD PLATE",active; positive
same,mutagenic call,"Test System: AMES SALMONELLA TYPHIMURIUM, Strain/Indicator: TA102, Metabolic Activation: NONE, Method: PREINCUBATION",inactive; negative
same,mutagenic call,"Test System: AMES SALMONELLA TYPHIMURIUM, Strain/Indicator: TA102, Metabolic Activation: NONE, Method: STANDARD PLATE",inactive; negative
same,mutagenic call,"Test System: AMES SALMONELLA TYPHIMURIUM, Strain/Indicator: TA102, Metabolic Activation: RAT, KIDNEY, S-9, Method: PREINCUBATION",active; positive
same,mutagenic call,"Test System: AMES SALMONELLA TYPHIMURIUM, Strain/Indicator: TA104, Metabolic Activation: RAT, KIDNEY, S-9, Method: PREINCUBATION",active; positive
same,mutagenic call,"Test System: AMES SALMONELLA TYPHIMURIUM, Strain/Indicator: TA104, Metabolic Activation: RAT, KIDNEY, S-9, Method: STANDARD PLATE",inactive; negative
same,mutagenic call,"Test System: AMES SALMONELLA TYPHIMURIUM, Strain/Indicator: TA1535, Metabolic Activation: RAT, KIDNEY, S-9, Method: PREINCUBATION",inactive; negative
same,mutagenic call,"Test System: AMES SALMONELLA TYPHIMURIUM, Strain/Indicator: TA1537, Metabolic Activation: RAT, KIDNEY, S-9, Method: PREINCUBATION",inactive; negative
same,mutagenic call,"Test System: Mouse lymphoma, Strain/Indicator: L5178Y (tk+/tk-), Metabolic Activation: None, Method: Suspension/plate",active; equivocal (previous evaluation positive)
same,mutagenic call,"Test System: Mouse lymphoma, Strain/Indicator: L5178Y (tk+/tk-), Metabolic Activation: Rat, Liver, S-9, Aroclor 1254, Method: Suspension/plate",inactive; negative
c1ccc2c(c1)c1ccccc1c1cc3cnccc3cc21,mutagenic call,[4],inactive; negative
same,mutagenic call,"Test System: AMES SALMONELLA TYPHIMURIUM, Strain/Indicator: TA98, Metabolic Activation: RAT, LIVER, S-9, AROCLOR 1254 (10%), Method: STANDARD PLATE",active; positive
same,mutagenic call,"Test System: AMES SALMONELLA TYPHIMURIUM, Strain/Indicator: TA98, Metabolic Activation: RAT, LIVER, S-9, AROCLOR 1254, Method: STANDARD PLATE",active; positive
same,mutagenic call,[2],inactive; negative
same,mutagenic call,"Test System: AMES SALMONELLA TYPHIMURIUM, Strain/Indicator: TA100, Metabolic Activation: RAT, LIVER, S-9, AROCLOR 1254 (10%), Method: STANDARD PLATE",active; positive
same,mutagenic call,"Test System: AMES SALMONELLA TYPHIMURIUM, Strain/Indicator: TA100, Metabolic Activation: RAT, LIVER, S-9, AROCLOR 1254, Method: STANDARD PLATE",active; positive
